Experimental data: ChEMBL document CHEMBL1131346, “A free energy calculation can be used to predict K(+)-binding constants for new macrotetrolide antibiotics” (Bioorg Med Chem Lett, 1998)

Experiment: Compound was evaluated for K+ ion binding affinity to macrocycle of macrotetrolides

SMILES: CC[C@H]1C[C@@H]2CC[C@@H](O2)[C@@H](C)C(=O)O[C@H](C)C[C@H]2CC[C@H](O2)[C@H](C)C(=O)O[C@@H](C)C[C@@H]2CC[C@@H](O2)[C@@H](C)C(=O)O[C@H](C)C[C@H]2CC[C@H](O2)[C@H](C)C(=O)O1
- Log K: 4.4

SMILES: CC[C@H]1C[C@@H]2CC[C@@H](O2)[C@@H](C)C(=O)O[C@H](C)C[C@H]2CC[C@H](O2)[C@H](C)C(=O)O[C@@H](CC)C[C@@H]2CC[C@@H](O2)[C@@H](C)C(=O)O[C@H](C)C[C@H]2CC[C@H](O2)[C@H](C)C(=O)O1
- Log K: 4.73

SMILES: C[C@@H]1C[C@H]2CC[C@H](O2)[C@H](C)C(=O)O[C@@H](C)C[C@@H]2CC[C@@H](O2)[C@@H](C)C(=O)O[C@H](C)C[C@H]2CC[C@@H](O2)[C@H](C)C(=O)O[C@@H](C)C[C@@H]2CC[C@@H](O2)[C@@H](C)C(=O)O1
- Log K: 3.88
